Tests used:
[1] = tested on: FXR target gene expression; experiment: FXR target gene expression (qPCR) after acute PO or IP treatment; assay type: in vivo, C57BL/6J mice; conditions: for FXR target genes (IBABP, OSTα, FGF15) in liver or kidney / FXR target genes (IBABP, OSTα, FGF15) in the intestine: PO
Description: FIGS. 1A-1C are a comparative expression chart and two bar charts, respectively, illustrating increased levels of FXR target gene expression in the intestine relative to expression in the liver and kidney. 8 week-old C57BL/6J mice were treated with vehicle or fexaramine (100 mg/kg) via oral (PO) or intraperitoneal (IP) injection for three days (FIGS. 1A-1B) or five days (FIG. 1C).
FXR target gene expression was analyzed by qPCR. Gene expression was normalized against a vehicle-treated group.
FIG. 1F is a bar chart illustrating that orally delivered fexaramine is intestinally-restricted. Mice received vehicle or Fexaramine (100 mg/kg) via per os (PO) or intraperitoneal (IP) injection for 5 days. Expression of the FXR target gene SHP after PO or IP injection in selected tissues is shown.
(§1) Upon exploration of the in vivo effects of fexaramine (Fex) administration, it was discovered that due to ineffectual absorption, oral (PO) and intraperitoneal (IP) drug delivery produced very different effects (FIGS. 1D and 1E).

[2] = LC/MS quantification of serum fexaramine after PO or IP; assay type: in vivo, mice
Description: FIG. 1D is a schematic diagram illustrating an experimental procedure used to evaluate fexaramine, where mice were treated with vehicle or fexaramine (100 mg/kg) via PO or IP injection, and LC/MS quantification of serum fexaramine was conducted five days later.
FIG. 1E is a bar chart illustrating serum fexaramine concentrations after administration as described in FIG. 1D. Data represent mean values±STD. Statistical analysis was performed with the Student's t test (*p<0.05, **p<0.01).
as §1

[3] = tested on: serum bile acid composition; experiment: Serum bile acid composition by mass spectrometry; assay type: in vivo, mice
Description: Mice fed a HFD for 14 weeks were maintained on a HFD and treated with vehicle or fexaramine (100 mg/kg/day per os for 5 week). Serum bile acid composition was determined by mass spectrometry. N.D not determined.

normal chow-fed mice = experiment: Chronic oral treatment of normal chow-fed mice; assay type: in vivo
Description: FIGS. 3A-3D are line graphs and a bar graph showing the effects of fexaramine administration in normal chow-fed mice. The mice were treated with vehicle (left bar) or fexaramine (100 mg/kg) (right bar) via PO for 5 weeks. Data represent the mean±STD. Statistical analysis as performed with the Student's t test (*p<0.05, **p<0.01).
To investigate the physiological effects of intestinal FXR activation by fexaramine, mice were subjected to chronic fexaramine (100 mg/kg Fex) PO treatment for 5 weeks.

DIO mice = experiment: Hyperinsulinemic-euglycemic clamp in DIO mice; assay type: in vivo
Description: FIGS. 15I-15K are a line graph and two bar graphs showing the effect of fexaramine treatment on body weight, insulin-stimulated GDR, and fasting insulin levels. Mice were fed HFD for 14 weeks, and then administered daily oral injections of vehicle or fexaramine (100 mg/kg) for 3 weeks with HFD. The mice treated with fexaramine were initially heavier (by 2-3 grams). Three weeks after treatment, a clamp study was performed on the mice. Data represent the mean±STD. Statistical analysis was performed with the Student's t test (*p<0.05, **p<0.01).

COC(=O)/C=C/c1cccc(N(Cc2ccc(-c3ccc(N(C)C)cc3)cc2)C(=O)C2CCCCC2)c1 [fexaramine]
FXR target gene expression in the liver and kidney after IP injection ([1]; IP, 100 mg/kg, five days): increases FXR target gene expression in the liver and kidney | induction of SHP in liver and kidney ([1]; PO versus IP, 100 mg/kg for five days): only seen in liver and kidney after IP treatment | FXR target genes (IBABP, OSTα, FGF15) in liver or kidney ([1]; 100 mg/kg): not in the liver or kidney | FXR target genes (IBABP, OSTα, FGF15) in the intestine ([1]; 100 mg/kg): substantially enhances FXR target gene expression in the intestine | FXR target genes (IBABP, OSTα, FGF15) in liver or kidney ([1]; 100 mg/kg, listed as Fex): failed to affect the expression of these genes in liver or kidney | FXR target genes (IBABP, OSTα, FGF15) in the intestine ([1]; 100 mg/kg, listed as Fex): induced multiple FXR target genes in the intestine | induction of FXR target gene SHP throughout the intestine ([1]; acute PO and IP, 100 mg/kg for five days): robust induction | serum Fex level after PO compared to IP ([2]; acute PO vs IP, 100 mg/kg): 10 % of IP levels | absorption after oral delivery ([2]; oral): poorly absorbed | bile acid pool size [3]: reducing the bile acid pool size | fraction of lithocholic acid among circulating bile acids [3]: increasing the fraction of the secondary bile acid, lithocholic acid | fraction of taurocholic acid among circulating bile acids [3]: decreasing the fraction of taurocholic acid | ratio of unconjugated to conjugated cholic acid ([3]; 100 mg/kg PO 5 weeks): remarkably increased | glucose homeostasis in normal chow-fed mice (normal chow-fed mice; across a range of doses): no effects observed | weight gain, basal metabolic activity and glucose tolerance (normal chow-fed mice; chow-fed, 100 mg/kg PO 5 weeks): indistinguishable from vehicle-treated mice | insulin-mediated suppression of HGP (DIO mice; compared to control DIO mice): marked increase | basal HGP, GDR, IS-GDR, FFA suppression and fasting insulin levels (DIO mice; weight-matched cohorts): No differences

From US10077268B2, “FXR agonists and methods for making and using” (Salk Institute for Biological Studies, priority 2014, dated 2018)
